Measurements published in ChEMBL document CHEMBL4017477, “Synthesis and evaluation of 4,6-disubstituted pyrimidines as CNS penetrant pan-muscarinic antagonists with a novel chemotype” (Bioorg Med Chem Lett, 2017).

Experiments:
[1] = biological target: T1, Muscarinic acetylcholine receptor M4 (Homo sapiens, UniProt P08173); assay: Antagonist activity at recombinant human M4 receptor expressed in CHO cells co-expressing Gqi5 by calcium mobilization assay; assay type: functional, cell-based
T1 sequence (P08173 whole entry): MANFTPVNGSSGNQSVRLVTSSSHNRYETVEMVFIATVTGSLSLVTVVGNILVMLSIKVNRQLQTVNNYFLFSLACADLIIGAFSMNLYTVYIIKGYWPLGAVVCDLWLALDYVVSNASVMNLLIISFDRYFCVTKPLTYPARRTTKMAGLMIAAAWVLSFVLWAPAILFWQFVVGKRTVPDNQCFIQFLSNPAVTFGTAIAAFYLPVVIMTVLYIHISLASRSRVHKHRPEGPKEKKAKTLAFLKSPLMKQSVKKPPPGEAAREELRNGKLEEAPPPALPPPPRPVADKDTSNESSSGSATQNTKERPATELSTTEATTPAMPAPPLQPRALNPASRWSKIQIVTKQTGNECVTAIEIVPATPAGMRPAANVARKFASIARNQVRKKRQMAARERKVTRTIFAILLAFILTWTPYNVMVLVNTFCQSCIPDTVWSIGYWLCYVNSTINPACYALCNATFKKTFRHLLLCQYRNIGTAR

[2] = biological target: T2, Muscarinic acetylcholine receptor M4 (Homo sapiens) (UniProt P08173); assay: Antagonist activity at recombinant human M4 receptor expressed in CHO cells co-expressing Gqi5 by calcium mobilization assay relative to acetylcholine; assay type: functional, cell-based
T2 sequence (whole entry): T1 sequence (P08173 whole entry)

[3] = Elimination half life in rat at 0.2 mg/kg administered as iv cassette dose; details: in vivo, read-out: beta t1/2 (converted)
[4] = Volume of distribution at steady state in rat at 0.2 mg/kg administered as iv cassette dose; details: in vivo, read-out: Vdss
[5] = Brain to plasma partition coefficient, Kp of the compound in rat; assay type: ADME
[6] = Ratio of unbound brain to plasma concentration in rat; assay type: ADME; details: brain
[7] = biological target: T3, Muscarinic acetylcholine receptor M3 (Homo sapiens, UniProt P20309); assay: Antagonist activity at recombinant human M3 receptor expressed in CHO cells co-expressing Gqi5 by calcium mobilization assay relative to acetylcholine; assay type: functional, cell-based
Target sequence in this assay (P20309 whole entry, looked up): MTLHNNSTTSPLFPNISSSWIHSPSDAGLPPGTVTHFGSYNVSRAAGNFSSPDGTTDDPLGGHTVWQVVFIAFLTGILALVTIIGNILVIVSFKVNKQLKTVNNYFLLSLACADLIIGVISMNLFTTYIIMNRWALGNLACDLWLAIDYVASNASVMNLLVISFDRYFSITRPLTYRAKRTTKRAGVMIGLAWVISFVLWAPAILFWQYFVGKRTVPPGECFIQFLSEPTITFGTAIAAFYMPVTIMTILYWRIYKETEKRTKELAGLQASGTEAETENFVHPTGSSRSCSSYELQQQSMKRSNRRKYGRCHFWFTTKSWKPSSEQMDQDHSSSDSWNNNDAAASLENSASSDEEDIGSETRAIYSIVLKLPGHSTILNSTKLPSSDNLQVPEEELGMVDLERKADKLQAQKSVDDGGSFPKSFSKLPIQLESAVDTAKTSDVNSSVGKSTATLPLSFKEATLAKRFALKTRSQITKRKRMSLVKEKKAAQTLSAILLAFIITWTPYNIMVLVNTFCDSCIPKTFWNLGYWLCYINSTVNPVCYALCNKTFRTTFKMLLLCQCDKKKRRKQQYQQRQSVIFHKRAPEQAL

[8] = biological target: T4, Muscarinic acetylcholine receptor M2 (Homo sapiens) (UniProt P08172); assay: Antagonist activity at recombinant human M2 receptor expressed in CHO cells co-expressing Gqi5 by calcium mobilization assay relative to acetylcholine; assay type: functional, cell-based
T4 sequence (whole entry): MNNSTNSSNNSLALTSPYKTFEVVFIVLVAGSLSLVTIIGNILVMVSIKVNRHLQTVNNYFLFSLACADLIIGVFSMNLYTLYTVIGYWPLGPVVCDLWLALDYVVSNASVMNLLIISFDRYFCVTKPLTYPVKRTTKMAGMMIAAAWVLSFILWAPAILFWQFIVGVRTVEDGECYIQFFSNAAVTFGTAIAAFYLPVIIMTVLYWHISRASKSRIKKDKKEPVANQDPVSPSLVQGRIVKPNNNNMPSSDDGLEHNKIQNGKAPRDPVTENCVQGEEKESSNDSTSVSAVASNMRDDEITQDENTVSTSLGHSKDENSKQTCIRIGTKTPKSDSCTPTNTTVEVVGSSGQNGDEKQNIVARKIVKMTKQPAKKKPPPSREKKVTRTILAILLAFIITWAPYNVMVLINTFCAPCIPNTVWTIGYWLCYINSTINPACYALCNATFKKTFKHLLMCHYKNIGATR

[9] = biological target: T3, Muscarinic acetylcholine receptor M3; assay: Antagonist activity at recombinant human M3 receptor expressed in CHO cells co-expressing Gqi5 by calcium mobilization assay; assay type: functional, cell-based
Target sequence in this assay (P20309 whole entry): as the sequence (P20309 whole entry, looked up) above

[10] = Clearance in rat at 0.2 mg/kg administered as iv cassette dose; details: in vivo
[11] = biological target: T5, Muscarinic acetylcholine receptor M1 (Homo sapiens) (UniProt P11229); assay: Antagonist activity at recombinant human M1 receptor expressed in CHO cells co-expressing Gqi5 by calcium mobilization assay relative to acetylcholine; assay type: functional, cell-based
T5 sequence (whole entry): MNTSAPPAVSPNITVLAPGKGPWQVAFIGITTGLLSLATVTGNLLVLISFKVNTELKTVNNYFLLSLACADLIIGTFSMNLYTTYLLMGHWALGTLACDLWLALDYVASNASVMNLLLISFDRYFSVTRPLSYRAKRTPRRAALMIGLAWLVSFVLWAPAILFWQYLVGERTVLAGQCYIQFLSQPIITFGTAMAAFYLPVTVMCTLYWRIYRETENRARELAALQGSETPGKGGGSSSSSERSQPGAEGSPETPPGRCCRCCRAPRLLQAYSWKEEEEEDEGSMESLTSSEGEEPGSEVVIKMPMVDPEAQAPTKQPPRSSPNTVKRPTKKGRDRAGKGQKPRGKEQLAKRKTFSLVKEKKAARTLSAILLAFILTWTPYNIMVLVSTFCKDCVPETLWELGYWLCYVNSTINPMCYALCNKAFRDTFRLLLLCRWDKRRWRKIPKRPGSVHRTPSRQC

[12] = biological target: T6, Muscarinic acetylcholine receptor M4 (Rattus norvegicus, UniProt P08485); assay: Antagonist activity at rat M4 receptor by calcium mobilization assay; assay type: functional
T6 sequence (P08485 whole entry): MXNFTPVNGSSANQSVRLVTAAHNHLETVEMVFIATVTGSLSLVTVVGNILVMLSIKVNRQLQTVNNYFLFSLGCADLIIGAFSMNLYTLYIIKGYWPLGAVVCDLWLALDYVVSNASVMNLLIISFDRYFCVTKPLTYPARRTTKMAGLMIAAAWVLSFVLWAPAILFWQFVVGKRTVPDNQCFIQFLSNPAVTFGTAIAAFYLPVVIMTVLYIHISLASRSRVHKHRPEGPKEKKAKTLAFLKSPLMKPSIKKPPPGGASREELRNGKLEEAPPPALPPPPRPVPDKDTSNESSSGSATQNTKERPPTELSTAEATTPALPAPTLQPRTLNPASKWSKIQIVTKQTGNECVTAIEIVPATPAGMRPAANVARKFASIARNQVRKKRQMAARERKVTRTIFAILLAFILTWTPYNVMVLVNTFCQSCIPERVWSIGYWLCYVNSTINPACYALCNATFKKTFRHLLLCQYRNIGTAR

[13] = biological target: T7, Muscarinic acetylcholine receptor M4 (Rattus norvegicus) (UniProt P08485); assay: Antagonist activity at rat M4 receptor by calcium mobilization assay relative to acetylcholine; assay type: functional
T7 sequence (whole entry): T6 sequence (P08485 whole entry)

[14] = biological target: T8, Muscarinic acetylcholine receptor M2 (Homo sapiens, UniProt P08172); assay: Antagonist activity at recombinant human M2 receptor expressed in CHO cells co-expressing Gqi5 by calcium mobilization assay; assay type: functional, cell-based
T8 sequence (P08172 whole entry): T4 sequence (whole entry)

[15] = biological target: T9, Muscarinic acetylcholine receptor M1 (Homo sapiens, UniProt P11229); assay: Antagonist activity at recombinant human M1 receptor expressed in CHO cells co-expressing Gqi5 by calcium mobilization assay; assay type: functional, cell-based
T9 sequence (P11229 whole entry): T5 sequence (whole entry)

[16] = biological target: T10, Muscarinic acetylcholine receptor M5 (Homo sapiens) (UniProt P08912); assay: Antagonist activity at recombinant human M5 receptor expressed in CHO cells co-expressing Gqi5 by calcium mobilization assay relative to acetylcholine; assay type: functional, cell-based
T10 sequence (whole entry): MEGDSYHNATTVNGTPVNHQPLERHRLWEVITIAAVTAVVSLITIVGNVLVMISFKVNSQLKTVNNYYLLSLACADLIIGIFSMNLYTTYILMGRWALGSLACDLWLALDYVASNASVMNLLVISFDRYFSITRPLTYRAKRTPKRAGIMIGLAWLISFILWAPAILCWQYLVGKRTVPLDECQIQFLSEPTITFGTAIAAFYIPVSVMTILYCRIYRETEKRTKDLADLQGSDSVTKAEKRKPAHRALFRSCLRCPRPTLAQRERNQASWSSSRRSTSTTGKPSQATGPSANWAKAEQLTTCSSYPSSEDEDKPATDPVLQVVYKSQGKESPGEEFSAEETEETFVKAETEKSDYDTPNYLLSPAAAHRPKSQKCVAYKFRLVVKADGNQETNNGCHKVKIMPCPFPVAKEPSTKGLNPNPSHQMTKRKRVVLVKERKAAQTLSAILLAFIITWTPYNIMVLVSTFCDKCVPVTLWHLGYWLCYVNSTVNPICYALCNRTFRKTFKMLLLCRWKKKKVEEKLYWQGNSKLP

[17] = biological target: T11, Muscarinic acetylcholine receptor M5 (Homo sapiens, UniProt P08912); assay: Antagonist activity at recombinant human M5 receptor expressed in CHO cells co-expressing Gqi5 by calcium mobilization assay; assay type: functional, cell-based
T11 sequence (P08912 whole entry): T10 sequence (whole entry)

Plasma [18] = assay: Unbound plasma concentration in human; assay type: ADME, cell-free
Brain = assay: Unbound brain concentration in rat; assay type: ADME, tissue-based; details: in vivo
Plasma [19] = assay: Unbound plasma concentration in rat; assay type: ADME, cell-free

O=C(NCc1ccccc1)C1CCN(c2cc(Oc3ccc(F)cc3F)ncn2)CC1
IC50 ([1]; read-out: IC50): > 10000 nM

O=C(C1CCN(c2cc(Oc3ccc(F)cc3F)ncn2)CC1)N1CCCc2ccccc2C1
IC50 ([1]; read-out: IC50): 1040 nM
Emin [2]: 6%

COc1ccc2c(c1)CN(C(=O)C1CCN(c3cc(Oc4ccc(F)cc4F)ncn3)CC1)CC2
IC50 ([1]; read-out: IC50): 2470 nM
IC50 ([1]; read-out: pIC50 (converted)): 2400 nM
Emin [2]: 11.8%

O=C(C1CCN(c2cc(Oc3ccc4c(c3)OCO4)ncn2)CC1)N1CCc2ccccc2C1
IC50 ([1]; read-out: IC50): 510 nM
Emin [2]: 4.1%

O=C(C1CCN(c2cc(Oc3ccc(F)cc3F)ncn2)CC1)N1Cc2ccccc2C1
half-life [3]: 222 min
Vd [4]: 1.35 L/kg
Kp [5]: 0.67
K(p,uu,brain) [6]: 0.87
Emin [7]: 2.3%
Emin [8]: 8.7%
IC50 [9]: 660 nM
IC50 ([1]; read-out: IC50): 340 nM
IC50 ([1]; read-out: pIC50 (converted)): 324 nM
clearance [10]: 5.37 mL/min/kg
Emin [11]: 18.2%
IC50 ([12]; read-out: IC50): 560 nM
IC50 ([12]; read-out: pIC50 (converted)): 479 nM
Emin [13]: 42.7%
IC50 [14]: 520 nM
IC50 [15]: 540 nM
Emin [2]: 18.4%
Emin [16]: 42.6%
IC50 [17]: 1130 nM

COc1ccc2c(c1)CCN(C(=O)C1CCN(c3cc(Oc4ccc(F)cc4F)ncn3)CC1)C2
IC50 ([1]; read-out: IC50): 580 nM
IC50 ([1]; read-out: pIC50 (converted)): 562 nM
Emin [2]: 5.5%

Cc1ccc(Oc2cc(N3CCC(C(=O)N4CCc5ccccc5C4)CC3)ncn2)cc1
IC50 ([1]; read-out: IC50): 310 nM
Emin [2]: 3.3%

CCc1ccc(Oc2cc(N3CCC(C(=O)N4CCc5ccccc5C4)CC3)ncn2)cc1
Fu (Plasma [18]): 0.001
Kp [5]: 1.45
K(p,uu,brain) [6]: 0.36
Fu (Brain): 0.001
Fu (Plasma [19]): 0.004
IC50 [9]: < 1500 nM
IC50 ([1]; read-out: IC50): 380 nM
IC50 ([1]; read-out: pIC50 (converted)): 347 nM
IC50 ([12]; read-out: IC50): 590 nM
IC50 ([12]; read-out: pIC50 (converted)): 562 nM
Emin [13]: 13.1%
IC50 [14]: < 1500 nM
IC50 [15]: < 1500 nM
Emin [2]: 5.3%
IC50 [17]: < 1500 nM

O=C(C1CCN(c2cc(Oc3ccc(Cl)cc3F)ncn2)CC1)N1CCc2ccccc2C1
IC50 ([1]; read-out: IC50): 150 nM
Emin [2]: 3.1%

COc1ccc(Oc2cc(N3CCC(C(=O)N4CCc5ccccc5C4)CC3)ncn2)cc1
IC50 ([1]; read-out: IC50): 460 nM
Emin [2]: 5.3%

O=C(C1CCN(c2cc(Oc3ccc(F)cc3F)ncn2)CC1)N1CCC2CCCCC2C1 (centres undefined)
IC50 ([1]; read-out: IC50): 410 nM
Emin [2]: 5.1%

O=C(C1CCN(c2cc(Oc3ccc(F)cc3F)ncn2)CC1)N1CCc2cc(C(F)(F)F)ccc2C1
IC50 ([1]; read-out: IC50): > 10000 nM
